US20240158446A1, “CYCLIC COMPOUND HAVING SELECTIVE INHIBITORY ACTION ON KRAS OVER HRAS AND NRAS” (CHUGAI SEIYAKU KABUSHIKI KAISHA, priority 2021, published 2024)
Read-outs that look alike come from different tables or passages of the source.

Assays:
[1] = target: GDP-bound HRAS wild-type protein (Homo sapiens, UniProt P01112); assay: Binding to HRAS by surface plasmon resonance (SPR), Single Cycle Kinetics; conditions: SPR; for HRAS/KRAS (ratio of KD value for HRAS to KD value for KRAS): GDP-bound HRAS wild-type protein vs GDP-bound KRAS wild-type protein
Chain of GDP-bound HRAS wild-type protein (P01112 whole entry): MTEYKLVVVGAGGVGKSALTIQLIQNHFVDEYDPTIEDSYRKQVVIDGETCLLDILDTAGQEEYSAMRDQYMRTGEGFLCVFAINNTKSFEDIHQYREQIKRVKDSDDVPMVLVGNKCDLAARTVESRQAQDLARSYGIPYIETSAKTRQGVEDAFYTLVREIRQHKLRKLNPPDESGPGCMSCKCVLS

[2] = tested on: human lung cancer strain NCI-H441; conditions: read-out: NCI-H441 cell proliferation inhibitory activity, 50% proliferation inhibitory concentration (IC50 value); NCI-H441, four days, CellTiter-Glo;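 also: cell proliferation inhibition after four days measured by CellTiter-Glo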
[3] = target: GDP-bound KRAS wild-type protein (Homo sapiens, UniProt P01116); assay: Binding to KRAS by surface plasmon resonance (SPR), Single Cycle Kinetics; conditions: SPR, Single Cycle Kinetics
Chain of GDP-bound KRAS wild-type protein (P01116 whole entry): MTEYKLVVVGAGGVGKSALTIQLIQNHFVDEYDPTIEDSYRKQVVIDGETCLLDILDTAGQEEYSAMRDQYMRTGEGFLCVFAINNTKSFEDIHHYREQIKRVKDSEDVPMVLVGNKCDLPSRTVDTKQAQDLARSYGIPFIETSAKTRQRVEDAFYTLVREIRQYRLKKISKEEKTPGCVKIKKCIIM

[4] = target: GDP-bound NRAS wild-type protein (Homo sapiens, UniProt P01111); assay: Binding to NRAS by surface plasmon resonance (SPR), Single Cycle Kinetics; conditions: SPR; for NRAS/KRAS (ratio of KD value for NRAS to KD value for KRAS): GDP-bound NRAS wild-type protein vs GDP-bound KRAS wild-type protein
Chain of GDP-bound NRAS wild-type protein (P01111 whole entry): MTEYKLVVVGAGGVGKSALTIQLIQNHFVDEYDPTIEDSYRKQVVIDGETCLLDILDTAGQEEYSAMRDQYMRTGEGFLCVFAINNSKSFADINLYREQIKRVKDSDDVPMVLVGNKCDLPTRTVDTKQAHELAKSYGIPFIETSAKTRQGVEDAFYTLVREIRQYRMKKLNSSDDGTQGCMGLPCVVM

[5] = GDP-bound KRAS wild-type protein, read-out: KRAS KD
[6] = 1:1 binding model, read-out: KD value with respect to GDP-bound KRAS wild-type protein

SMILES: CCCO[C@@H]1C[C@H]2C(=O)NC3(CC(C)(C)C3)C(=O)N(C)[C@@H](C3CCCC3)C(=O)N(C)[C@H](C(=O)N(C)C)CC(=O)N(C)[C@H]3CCCCc4ccc(cc4)C[C@@H](C(=O)N(C)CC(=O)N[C@@H](CCc4ccc(Cl)c(Cl)c4)C(=O)N2C1)N1CC/C=C\C[C@@H](C1=O)N(C)C(=O)CN(C)C(=O)[C@H]([C@@H](C)CC)NC3=O [PP3092]
- HRAS/KRAS (ratio of KD value for HRAS to KD value for KRAS) [1]: A (a compound having 10 or more and less than 20 is denoted as A)
- ratio of the KD value with respect to GDP-bound HRAS wild-type protein to the KD value with respect to KRAS [1]: A (a compound having 10 or more and less than 20 is denoted as A)
- IC50 [2]: 7.4 nM
- Kd [3, 5]: 0.09 nM
- NRAS/KRAS (ratio of KD value for NRAS to KD value for KRAS) [4]: A (a compound having 10 or more and less than 20 is denoted as A)
- ratio of the KD value with respect to GDP-bound NRAS wild-type protein to the KD value with respect to KRAS [4]: A (a compound having 10 or more and less than 20 is denoted as A)

SMILES: CCO[C@@H]1C[C@H]2C(=O)NC3(CC(C)(C)C3)C(=O)N(C)[C@@H](C3CCCC3)C(=O)N(C)[C@H](C(=O)N3CCCCC3)CC(=O)N(C)[C@H]3CCCCc4ccc(cc4)C[C@@H](C(=O)N(C)CC(=O)N[C@@H](CCc4ccc(C(F)(F)F)c(OC)c4)C(=O)N2C1)N1CC/C=C\C[C@@H](C1=O)N(C)C(=O)CN(C)C(=O)[C@H]([C@@H](C)CC)NC3=O [PP3093, (1S,7S,11R,13S,19S,22S,26S,29S,35S,37Z)-19-cyclopentyl-11-ethoxy-7-[2-[3-methoxy-4-(trifluoromethyl)phenyl]ethyl]-3,3′,3′,18,21,25,31,34-octamethyl-29-[(1S)-1-methylpropyl]-22-(piperidine-1-carbonyl)spiro[3,6,9,15,18,21,25,28,31,34,41-undecazapentacyclo[24.15.9.2^43,46.1^35,41.0^9,13]tripentaconta-37,43(52),44,46(51)-tetraene-16,1′-cyclobutane]-2,5,8,14,17,20,24,27,30,33,53-undecone]
- HRAS/KRAS (ratio of KD value for HRAS to KD value for KRAS) [1]: A (a compound having 10 or more and less than 20 is denoted as A)
- ratio of the KD value with respect to GDP-bound HRAS wild-type protein to the KD value with respect to KRAS [1]: A (a compound having 10 or more and less than 20 is denoted as A)
- IC50 [2]: 3.2 nM
- Kd [3, 6]: 0.097 nM
- Kd [3, 5]: 0.097 nM
- NRAS/KRAS (ratio of KD value for NRAS to KD value for KRAS) [4]: A (a compound having 10 or more and less than 20 is denoted as A)
- ratio of the KD value with respect to GDP-bound NRAS wild-type protein to the KD value with respect to KRAS [4]: A (a compound having 10 or more and less than 20 is denoted as A)

SMILES: CCCO[C@@H]1C[C@H]2C(=O)NC3(CC(C)(C)C3)C(=O)N(C)[C@@H](C3CCCC3)C(=O)N(C)[C@H](C(=O)N3CCCC3)CC(=O)N(C)[C@H]3CCCCc4ccc(cc4)C[C@@H](C(=O)N(C)CC(=O)N[C@@H](CCc4ccc(C(F)(F)F)c(OC)c4)C(=O)N2C1)N1CC/C=C\C[C@@H](C1=O)N(C)C(=O)CN(C)C(=O)[C@H]([C@@H](C)CC)NC3=O [PP3094, (1S,7S,11R,13S,19S,22S,26S,29S,35S,37Z)-19-cyclopentyl-7-[2-[3-methoxy-4-(trifluoromethyl)phenyl]ethyl]-3,3′,3′,18,21,25,31,34-octamethyl-29-[(1S)-1-methylpropyl]-11-propoxy-22-(pyrrolidine-1-carbonyl)spiro[3,6,9,15,18,21,25,28,31,34,41-undecazapentacyclo[24.15.9.2^43,46.1^35,41.0^9,13]tripentaconta-37,43(52),44,46(51)-tetraene-16,1′-cyclobutane]-2,5,8,14,17,20,24,27,30,33,53-undecone]
- HRAS/KRAS (ratio of KD value for HRAS to KD value for KRAS) [1]: B (a compound having 3 or more and less than 10 is denoted as B)
- ratio of the KD value with respect to GDP-bound HRAS wild-type protein to the KD value with respect to KRAS [1]: B (a compound having 3 or more and less than 10 is denoted as B)
- IC50 [2]: 2.2 nM
- Kd [3, 6]: 0.081 nM
- Kd [3, 5]: 0.081 nM
- NRAS/KRAS (ratio of KD value for NRAS to KD value for KRAS) [4]: A (a compound having 10 or more and less than 20 is denoted as A)
- ratio of the KD value with respect to GDP-bound NRAS wild-type protein to the KD value with respect to KRAS [4]: A (a compound having 10 or more and less than 20 is denoted as A)

SMILES: CCC[C@H]1C(=O)N[C@@H]([C@@H](C)CC)C(=O)N(C2CC2)CC(=O)N(C)[C@H]2C/C=C\CCN(C2=O)[C@@H](Cc2ccc(C(F)(F)F)cc2)C(=O)N(C)CC(=O)N[C@@H](CCc2ccc(C(F)(F)F)c(OC)c2)C(=O)N2C[C@H](OCC)C[C@H]2C(=O)N(C)C2(CCC2)C(=O)N(C)[C@@H](C2CCCC2)C(=O)N(C)[C@H](C(=O)N2CCCCC2)CC(=O)N1C [PP3095, (2S,8S,12R,14S,20S,23S,27S,30S,36S,38Z)-20-cyclopentyl-32-cyclopropyl-12-ethoxy-8-[2-[3-methoxy-4-(trifluoromethyl)phenyl]ethyl]-4,16,19,22,26,35-hexamethyl-30-[(1S)-1-methylpropyl]-23-(piperidine-1-carbonyl)-27-propyl-2-[[4-(trifluoromethyl)phenyl]methyl]spiro[1,4,7,10,16,19,22,26,29,32,35-undecazatricyclo[34.5.1.0^10,14]dotetracont-38-ene-17,1′-cyclobutane]-3,6,9,15,18,21,25,28,31,34,42-undecone]
- HRAS/KRAS (ratio of KD value for HRAS to KD value for KRAS) [1]: A (a compound having 10 or more and less than 20 is denoted as A)
- ratio of the KD value with respect to GDP-bound HRAS wild-type protein to the KD value with respect to KRAS [1]: A (a compound having 10 or more and less than 20 is denoted as A)
- IC50 [2]: 33.7 nM
- Kd [3, 6]: 0.67 nM
- Kd [3, 5]: 0.67 nM
- NRAS/KRAS (ratio of KD value for NRAS to KD value for KRAS) [4]: A (a compound having 10 or more and less than 20 is denoted as A)
- ratio of the KD value with respect to GDP-bound NRAS wild-type protein to the KD value with respect to KRAS [4]: A (a compound having 10 or more and less than 20 is denoted as A)

SMILES: CCC[C@H]1C(=O)N[C@@H]([C@@H](C)CC)C(=O)N(C2CC2)CC(=O)N(C)[C@H]2C/C=C\CCN(C2=O)[C@@H](Cc2ccc(C(F)(F)F)cc2)C(=O)N(C)CC(=O)N[C@@H](CCc2ccc(C(F)(F)F)c(OC)c2)C(=O)N2C[C@H](OCC)C[C@H]2C(=O)N(C)C2(CCC2)C(=O)N(C)[C@@H](C2CCCC2)C(=O)N(C)[C@H](C(=O)N2CCCC2)CC(=O)N1C [PP3097]
- HRAS/KRAS (ratio of KD value for HRAS to KD value for KRAS) [1]: A (a compound having 10 or more and less than 20 is denoted as A)
- ratio of the KD value with respect to GDP-bound HRAS wild-type protein to the KD value with respect to KRAS [1]: A (a compound having 10 or more and less than 20 is denoted as A)
- IC50 [2]: 5.4 nM
- Kd [3, 6]: 0.38 nM
- Kd [3, 5]: 0.38 nM
- NRAS/KRAS (ratio of KD value for NRAS to KD value for KRAS) [4]: A (a compound having 10 or more and less than 20 is denoted as A)
- ratio of the KD value with respect to GDP-bound NRAS wild-type protein to the KD value with respect to KRAS [4]: A (a compound having 10 or more and less than 20 is denoted as A)

SMILES: CCC[C@H]1C(=O)N[C@@H]([C@@H](C)CC)C(=O)N(C2CC2)CC(=O)N(C)[C@H]2C/C=C\CCN(C2=O)[C@@H](Cc2ccc(C)cc2)C(=O)N(C)CC(=O)N[C@@H](CCc2ccc(C(F)(F)F)c(OC)c2)C(=O)N2C[C@H](OCC)C[C@H]2C(=O)N(C)C2(CCC2)C(=O)N(C)[C@@H](C2CCCC2)C(=O)N(C)[C@H](C(=O)N2CCCC2)CC(=O)N1C [PP3098, (2S,8S,12R,14S,20S,23S,27S,30S,36S,38Z)-20-cyclopentyl-32-cyclopropyl-12-ethoxy-8-[2-[3-methoxy-4-(trifluoromethyl)phenyl]ethyl]-4,16,19,22,26,35-hexamethyl-30-[(1S)-1-methylpropyl]-27-propyl-2-(p-tolylmethyl)-23-(pyrrolidine-1-carbonyl)spiro[1,4,7,10,16,19,22,26,29,32,35-undecazatricyclo[34.5.1.0^10,14]dotetracont-38-ene-17,1′-cyclobutane]-3,6,9,15,18,21,25,28,31,34,42-undecone]
- HRAS/KRAS (ratio of KD value for HRAS to KD value for KRAS) [1]: A (a compound having 10 or more and less than 20 is denoted as A)
- ratio of the KD value with respect to GDP-bound HRAS wild-type protein to the KD value with respect to KRAS [1]: A (a compound having 10 or more and less than 20 is denoted as A)
- IC50 [2]: 4.7 nM
- Kd [3, 6]: 0.24 nM
- Kd [3, 5]: 0.24 nM
- NRAS/KRAS (ratio of KD value for NRAS to KD value for KRAS) [4]: A (a compound having 10 or more and less than 20 is denoted as A)
- ratio of the KD value with respect to GDP-bound NRAS wild-type protein to the KD value with respect to KRAS [4]: A (a compound having 10 or more and less than 20 is denoted as A)

SMILES: CCC[C@H]1C(=O)N[C@@H]([C@@H](C)CC)C(=O)N2CCC[C@H]2C(=O)N(C)[C@H]2C/C=C\CCN(C2=O)[C@@H](Cc2ccc(C(F)(F)F)cc2)C(=O)N(C)CC(=O)N[C@@H](CCc2ccc(C(F)(F)F)c(OC)c2)C(=O)N2C[C@H](OCC)C[C@H]2C(=O)N(C)C2(CCC2)C(=O)N(C)[C@@H](C2CCCC2)C(=O)N(C)[C@H](C(=O)N2CCCCC2)CC(=O)N1C [PP3099]
- HRAS/KRAS (ratio of KD value for HRAS to KD value for KRAS) [1]: A (a compound having 10 or more and less than 20 is denoted as A)
- ratio of the KD value with respect to GDP-bound HRAS wild-type protein to the KD value with respect to KRAS [1]: A (a compound having 10 or more and less than 20 is denoted as A)
- IC50 [2]: 13.3 nM
- Kd [3, 6]: 0.61 nM
- Kd [3, 5]: 0.61 nM
- NRAS/KRAS (ratio of KD value for NRAS to KD value for KRAS) [4]: A (a compound having 10 or more and less than 20 is denoted as A)
- ratio of the KD value with respect to GDP-bound NRAS wild-type protein to the KD value with respect to KRAS [4]: A (a compound having 10 or more and less than 20 is denoted as A)
